Where a name gives a salt, the structure may show the parent alone.
Test system: hPSC-SCs
Conditions: not given

| Compound | z.score.t |
| --- | --- |
| Cl.OC1CCCCC1N1CCC(c2ccccc2)CC1 (stereo not drawn) [L(−)-vesamicol hydrochloride] | 0.6964 |
| CC(=O)O[C@H]1C[C@H](O[C@H]2[C@@H](O)C[C@H](O[C@H]3[C@@H](O)C[C@H](O[C@H]4CC[C@@]5(C)[C@H](CC[C@@H]6[C@@H]5C[C@@H](O)[C@]5(C)[C@@H](C7=CC(=O)OC7)CC[C@]65O)C4)O[C@@H]3C)O[C@@H]2C)O[C@H](C)[C@H]1O[C@@H]1O[C@H](CO)[C@@H](O)[C@H](O)[C@H]1O [Lanatoside C] | −2.334 |
| CC1=CC(=O)C2=C(C)CC[C@@H]3[C@H](OC(=O)[C@H]3C)[C@@H]12 [Leucomisine] | 1.214 |
| C[C@H](N)[C@H](O)c1ccc(O)c(O)c1 [Levonordefrin] | 0.1916 |
| CCC(=O)O[C@@](Cc1ccccc1)(c1ccccc1)[C@@H](C)CN(C)C [Levopropoxyphene napsylate] | −0.5351 |
| CCN(CC)CC(=O)Nc1c(C)cccc1C.Cl [LidocaÂ<ne hydrochloride] | −0.01953 |
| CN1[C@@H](C[C@@H](O)c2ccccc2)CCC[C@H]1C[C@H](O)c1ccccc1.Cl [Lobelanidine hydrochloride] | −0.3319 |
| CN1[C@@H](CC(=O)c2ccccc2)CCC[C@H]1C[C@H](O)c1ccccc1.Cl [Lobeline alpha (−) hydrochoride] | −0.2904 |
| CN(C)C(=O)C(CCN1CCC(O)(c2ccc(Cl)cc2)CC1)(c1ccccc1)c1ccccc1 [Loperamide hydrochloride] | −1.329 |
| COC1=C[C@@H]2C3=C([C@@H]2C1=O)[C@@H](NC(C)=O)CCc1cc(OC)c(OC)c(OC)c13 [Lumicolchicine gamma] | 1.528 |
| CN1C[C@H](CO)C=C2c3cccc4[nH]cc(c34)C[C@H]21 [Lysergol] | 0.1979 |
| CN(C)CCOC(=O)COc1ccc(Cl)cc1 [Meclofenoxate hydrochloride] | −2.264 |
| CCC1(c2cccc(O)c2)CCCCN(C)C1 (stereo not drawn) [Meptazinol hydrochloride] | 0.01078 |
| COC(=O)Nc1nc2ccc(SC(C)C)cc2[nH]1 [Methiazole] | −1.263 |

Same assay, conditions: HTS viability of hPSC-SCs in the presence of 30 mM glucose; Prestwick library; Table S4

| Compound | z.score.t |
| --- | --- |
| CC(=O)N1CCN(c2ccc(OCC3COC(Cn4ccnc4)(c4ccc(Cl)cc4Cl)O3)cc2)CC1 (stereo not drawn) [Ketoconazole] | 1.669 |
| CC(C(=O)O)c1cccc(C(=O)c2ccccc2)c1 (stereo not drawn) [Ketoprofen] | −1.014 |
| O=C(c1ccccc1)c1ccc2n1CCC2C(=O)O (stereo not drawn) [Ketorolac tromethamine] | 0.8465 |
| CN1CCC(=C2c3ccccc3CC(=O)c3sccc32)CC1 [Ketotifen fumarate] | −0.7415 |
| COc1c2occc2c(OC)c2c(=O)cc(C)oc12 [Khellin] | 0.7913 |
| CC(CCc1ccccc1)NCC(O)c1ccc(O)c(C(N)=O)c1 (stereo not drawn) [Labetalol hydrochloride] | 0.7665 |
| O=C(O)[C@H](O)[C@@H](O)[C@H](O[C@@H]1O[C@H](CO)[C@H](O)[C@H](O)[C@H]1O)[C@H](O)CO [Lactobionic acid] | 1.942 |
| Cc1c(OCC(F)(F)F)ccnc1C[S+]([O-])c1nc2ccccc2[nH]1 (stereo not drawn) [Lansoprazole] | 1.808 |
| CC[C@@H](C(=O)[C@@H](C)[C@@H](O)[C@H](C)CCc1ccc(C)c(O)c1C(=O)O)[C@H]1O[C@](CC)([C@H]2CC[C@](O)(CC)[C@H](C)O2)C[C@@H]1C [Lasalocid sodium salt] | −2.368 |
| Cc1oncc1C(=O)Nc1ccc(C(F)(F)F)cc1 [Leflunomide] | 0.9178 |
| N#Cc1ccc(C(c2ccc(C#N)cc2)n2cncn2)cc1 [Letrozole] | −0.4953 |
| c1ccc([C@H]2CN3CCSC3=N2)cc1 [Levamisole hydrochloride] | 0.4064 |
| C[C@@H]1CN([C@H]2CC[C@](C#N)(c3ccc(F)cc3)CC2)CC[C@]1(C(=O)O)c1ccccc1 [Levocabastine hydrochloride] | −0.6516 |
| N[C@@H](Cc1ccc(O)c(O)c1)C(=O)O [Levodopa] | −1.365 |
| Cc1cccc(C)c1NC(=O)CN1CCN(CCCC(c2ccc(F)cc2)c2ccc(F)cc2)CC1 [Lidoflazine] | −1.03 |
| CCC[C@@H]1C[C@@H](C(=O)N[C@@H]([C@H]2O[C@H](SC)[C@H](O)[C@@H](O)[C@H]2O)[C@@H](C)O)N(C)C1 [Lincomycin hydrochloride] | 0.1446 |
| N[C@@H](Cc1cc(I)c(Oc2ccc(O)c(I)c2)c(I)c1)C(=O)O [Liothyronine] | −1.539 |
| NCCCC[C@H](N[C@@H](CCc1ccccc1)C(=O)O)C(=O)N1CCC[C@H]1C(=O)O [Lisinopril] | 0.08508 |
| C[C@H](CCC(=O)O)[C@H]1CC[C@H]2[C@@H]3CC[C@@H]4C[C@H](O)CC[C@]4(C)[C@H]3CC[C@]12C [Lithocholic acid] | −0.7945 |
| CCn1cc(C(=O)O)c(=O)c2cc(F)c(N3CCNC(C)C3)c(F)c21 (stereo not drawn) [Lomefloxacin hydrochloride] | −0.9109 |
| CCCCCN(CCCCC)C(=O)C(CCC(=O)O)NC(=O)c1ccc(Cl)c(Cl)c1 (stereo not drawn) [Lorglumide sodium salt] | 1.824 |

| Compound | z.score.t |
| --- | --- |
| CC[C@H](C)C(=O)O[C@H]1C[C@@H](C)C=C2C=C[C@H](C)[C@H](CC[C@@H]3C[C@@H](O)CC(=O)O3)[C@H]21 [Lovastatin] | −0.865 |
| CN1CCN(C2=Nc3ccccc3Oc3ccc(Cl)cc32)CC1 [Loxapine succinate] | −0.2278 |
| O=c1cc(-c2ccc(O)c(O)c2)oc2cc(O)cc(O)c12 [Luteolin] | −0.7945 |
| CN(C)[C@@H]1C(O)=C(C(=O)NCNCCCC[C@H](N)C(=O)O)C(=O)[C@@]2(O)C(O)=C3C(=O)c4c(O)cccc4[C@@](C)(O)[C@H]3C[C@@H]12 [Lymecycline] | −0.5745 |
| C#C[C@]1(O)CC[C@H]2[C@@H]3CCC4=CCCC[C@@H]4[C@H]3CC[C@@]21C [Lynestrenol] | −1.847 |
| NCc1ccc(S(N)(=O)=O)cc1 [Mafenide hydrochloride] | −0.4019 |
| CNCCCC12CCC(c3ccccc31)c1ccccc12 [Maprotiline hydrochloride] | −0.865 |
| COC(=O)Nc1nc2ccc(C(=O)c3ccccc3)cc2[nH]1 [Mebendazole] | −1.584 |
| CCN(CCCCOC(=O)c1ccc(OC)c(OC)c1)C(C)Cc1ccc(OC)cc1 (stereo not drawn) [Mebeverine hydrochloride] | −0.3301 |
| CN1CCc2c(c3ccccc3n2Cc2ccccc2)C1.O=S(=O)(O)c1cccc2c(S(=O)(=O)O)cccc12 [Mebhydroline 1,5-naphtalenedisulfonate] | 0.7312 |
| CNC1(C)C2CCC(C2)C1(C)C (stereo not drawn) [Mecamylamine hydrochloride] | 0.3097 |
| C=C1c2c(Cl)ccc(O)c2C(=O)C2=C(O)[C@]3(O)C(=O)C(C(N)=O)=C(O)[C@@H](N(C)C)[C@@H]3[C@@H](O)[C@H]12.O=C(O)c1cc(S(=O)(=O)O)ccc1O [Meclocycline sulfosalicylate] | 1.049 |
| Cc1cccc(CN2CCN(C(c3ccccc3)c3ccc(Cl)cc3)CC2)c1 (stereo not drawn) [Meclozine dihydrochloride] | −1.823 |
| CC(=O)[C@H]1CC[C@H]2[C@@H]3C[C@H](C)C4=CC(=O)CC[C@]4(C)[C@H]3[C@@H](O)C[C@]12C [Medrysone] | 0.1244 |
| Cc1cccc(Nc2ccccc2C(=O)O)c1C [Mefenamic acid] | 1.751 |
| CCN(CC)CCNC(=O)COc1ccc(OC)cc1 [Mefexamide hydrochloride] | 0.189 |
| OC(c1cc(C(F)(F)F)nc2c(C(F)(F)F)cccc12)C1CCCCN1 (stereo not drawn) [Mefloquine hydrochloride] | −1.637 |
| CNC[C@H](O)[C@@H](O)[C@H](O)[C@H](O)CO [Meglumine] | −0.9741 |
| COc1ccc2[nH]cc(CCNC(C)=O)c2c1 [Melatonin] | 0.006455 |
| Cc1cnc(NC(=O)C2=C(O)c3ccccc3S(=O)(=O)N2C)s1 [Meloxicam] | 1.481 |
| CC12CC3CC(C)(C1)CC(N)(C3)C2 [Memantine Hydrochloride] | −0.9598 |

| Compound | z.score.t |
| --- | --- |
| CC1=CC(=O)c2ccccc2C1=O [Menadione] | −1.949 |
| C[N+]1(C)CCCC(OC(=O)C(O)(c2ccccc2)c2ccccc2)C1 (stereo not drawn) [Mepenzolate bromide] | 0.03421 |
| Cc1ccccc1OCC(O)CO (stereo not drawn) [Mephenesin] | −1.753 |
| CCC1(c2ccccc2)NC(=O)N(C)C1=O (stereo not drawn) [Mephenytoin] | −0.9817 |
| CCCNC(C)(C)COC(=O)c1ccccc1 [Meprylcaine hydrochloride] | −0.4953 |
| Nc1ccc(O)c(C(=O)O)c1 [Mesalamine] | −0.5745 |
| CN1CCCCC1CCN1c2ccccc2Sc2ccc([S+](C)[O-])cc21 (stereo not drawn) [Mesoridazine besylate] | 0.2816 |
| C=N[C@@H](C(=O)N[C@@H]1C(=O)N2[C@@H]1SC(C)(C)[C@@H]2C(=O)O)c1ccccc1 [Metampicillin sodium salt] | −1.069 |
| CNCC(O)c1ccc(O)c(OC)c1.Cl (stereo not drawn) [Metanephrine hydrochloride DL] | 1.259 |
| C[C@H](N)[C@H](O)c1cccc(O)c1 [Metaraminol bitartrate] | 1.088 |
| CN1C[C@H](CNC(=O)OCc2ccccc2)C[C@@H]2c3cccc4c3c(cn4C)C[C@H]21 [Metergoline] | 1.211 |
| CN(C)C(=N)N=C(N)N [Metformin hydrochloride] | 0.8639 |
| CC(=O)OC(C)C[N+](C)(C)C (stereo not drawn) [Methacholine chloride] | 1.554 |
| C=C1c2cccc(O)c2C(=O)C2=C(O)[C@]3(O)C(=O)C(C(N)=O)=C(O)[C@@H](N(C)C)[C@@H]3[C@@H](O)[C@H]12 [Methacycline hydrochloride] | −0.4684 |
| CC[N+](C)(CC)CCOC(=O)C1c2ccccc2Oc2ccccc21 [Methantheline bromide] | −0.3173 |
| CN(C)CCN(Cc1cccs1)c1ccccn1 [Methapyrilene hydrochloride] | 0.1344 |
| CC(=O)/N=c1/sc(S(N)(=O)=O)nn1C [Methazolamide] | −0.3678 |
| Cn1cc[nH]c1=S [Methimazole] | −0.05622 |
| CS(=N)(=O)CC[C@H](N)C(=O)O (stereo partly drawn) [Methionine sulfoximine (L)] | 1.124 |

— US20260053861A1, “CELL COMPOSITIONS AND METHODS OF USING THE SAME” (THE REGENTS OF THE UNIVERSITY OF CALIFORNIA, priority 2022, published 2026)
